From patent publication US9688707B2, “Bicyclic morpholino compounds and oligomeric compounds prepared therefrom” (Ionis Pharmaceuticals, Inc., priority 2014, dated 2017)

Tested on: complementary RNA with the sequence 5′-AGCAAAAAACGC-3′ (SEQ ID NO: 6)
Test: Thermal stability (Tm) assay
Type: binding
Conditions: for ΔTm: calculated relative to a DNA standard, same duplex and buffer as Tm; for Tm: duplex with complementary RNA strand, buffer 100 mM NaCl, 10 mM phosphate, 0.1 mM EDTA (pH 7), heating 0.5° C./min from 15° C. to 85° C.
Procedure: A series of modified morpholino oligomeric compounds were evaluated in a thermal stability (Tm) assay. A Cary 100 Bio spectrophotometer with the Cary Win UV Thermal program was used to measure absorbance vs. temperature. For the Tm experiments, oligomeric compounds were prepared at a concentration of 8 μM in a buffer of 100 mM NaCl, 10 mM phosphate and 0.1 mM EDTA (pH 7). The concentration of the oligonucleotides was determined at 85° C. The concentration of each oligomeric compound was […] after mixing of equal volumes of test oligomeric compound and complimentary RNA strand. Oligomeric compounds were hybridized with the complimentary RNA strand by heating the duplex to 90° C. for 5 minutes followed by cooling to room temperature. Using the spectrophotometer, Tm measurements were taken by heating the duplex solution at a rate of 0.5° C./min in cuvette starting @15° C. and heating to 85° C. Tm values were determined using Vant Hoff calculations (A260 vs temperature curve) using non self-complementary sequences where the minimum absorbance which relates to the duplex and the maximum absorbance which relates to the non-duplex single strand are manually integrated into the program. The oligomeric compounds were hybridized to complementary RNA with the sequence 5′-AGCAAAAAACGC-3′ (SEQ ID NO: 6). ΔTm's are calculated relative to a DNA standard.

| Substance | ΔTm | Tm |
| --- | --- | --- |
| 05/585595: GCGTTmRTTmRTTmRGCT, diamidate linkages, morpholino, 3′-cap NH (GCGTT_{mR}TT_{mR}TT_{mR}GCT; morpholino oligomer, diamidate linkages, modified morpholino nucleosides at marked places, 3'-NH cap, as printed in the source, key not given here) | 5.3 °C | 50.9 °C |
| 05/592592: GCGTTmRTTmRTTmRGCT, diamidate linkages, morpholino, 3′-cap NTr (trityl) (GCGTT_{mR}TT_{mR}TT_{mR}GCT; modified morpholino nucleosides, diamidate linkages, 3'-trityl cap, as printed in the source, key not given here) | −0.8 | 44.8 °C |
| 05/592594: GCGTTmSTTmSTTmSGCT, diamidate linkages, morpholino, 3′-cap NTr (trityl) (GCGTT_{mS}TT_{mS}TT_{mS}GCT; morpholino oligomer, diamidate linkages, modified morpholino nucleosides at marked places, 3'-trityl cap, as printed in the source, key not given here) | 5.1 °C | 50.7 °C |
| 05/592595: GCGTTmSTTmSTTmSGCT, diamidate linkages, morpholino, 3′-cap NH (GCGTT_{mS}TT_{mS}TT_{mS}GCT; modified morpholino nucleosides, diamidate linkages, 3'-NH cap, as printed in the source, key not given here) | 10 °C | 55.6 °C |
| 05/592978: GCGTTqTTqTTqGCT, q = bicyclic morpholino, diamidate linkages, 3′-cap NTr (trityl) (GCGTT_{q}TT_{q}TT_{q}GCT; bicyclic morpholino, diamidate linkages, 3'-trityl cap, as printed in the source, key not given here) | −2.2 | 43.4 °C |
| 05/592979: GCGTTqTTqTTqGCT, q = bicyclic morpholino, diamidate linkages, 3′-cap NH (GCGTT_{q}TT_{q}TT_{q}GCT; morpholino oligomer, diamidate linkages, bicyclic morpholino at marked places, 3'-NH cap, as printed in the source, key not given here) | 3 °C | 48.6 °C |
| 05/standard: DNA standard GCGTTTTTTGCT, PO linkages, unmodified DNA, 3′-cap OH (unmodified DNA) [reference compound] | – | 45.6 °C |
